# Source: ChEMBL document CHEMBL3797102, “Drug trapping in hERG K+ channels: (not) a matter of drug size?” (Medchemcomm, 2016)
# What was measured:
# Format in all cases: cell-based
# [1] = target: T1, Voltage-gated inwardly rectifying potassium channel KCNH2 (Homo sapiens, UniProt Q12809); assay: Inhibition of wild type human ERG channel expressed in Xenopus laevis oocytes assessed as use dependent steady state block of induced K+ current at 150 uM preincubated for 330 secs followed by pulse train at 1 Hz at holding potential -100 mV by two-electrode voltage clamp method
# [2] = target: T2, hERG (KCNH2), wild type (Homo sapiens, UniProt Q12809); assay: Inhibition of wild type human ERG channel expressed in Xenopus laevis oocytes assessed as first current amplitude after resting period of 300 secs followed by single test pulse at -100 mV holding potential by two-electrode voltage clamp method; set-up: scale not given: the % may be the effect or the level left; conditions: read-out: Activity
# [3] = target: T2, hERG (KCNH2), wild type; assay: Inhibition of wild type human ERG channel expressed in Xenopus laevis oocytes assessed as use dependent steady state block of +20 mV-induced K+ current at 150 uM preincubated for 330 secs followed by pulse train at 1 Hz by two-electrode voltage clamp method
# [4] = target: hERG (KCNH2) Y652A mutant (Homo sapiens, UniProt Q12809, Y652A); assay: Inhibition of human ERG channel Y652A mutant expressed in Xenopus laevis oocytes assessed as use dependent suppression of K+ current at 150 uM at 1 Hz equilibrated for 5 mins by two-electrode voltage clamp method
# [5] = target: hERG (KCNH2) F656A mutant (Homo sapiens, UniProt Q12809, F656A); assay: Inhibition of human ERG channel F656A mutant expressed in Xenopus laevis oocytes assessed as use dependent suppression of tail current at 150 uM at -140 mV by two-electrode voltage clamp method
# [6] = target: T1, Voltage-gated inwardly rectifying potassium channel KCNH2; assay: Inhibition of wild type human ERG channel expressed in Xenopus laevis oocytes assessed as recovery from channel block after resting period of 300 secs followed by single test pulse at -100 mV holding potential subsequently washed out at 0.3 Hz by two-electrode voltage clamp method; set-up: scale not given: the % may be the effect or the level left; conditions: 5 min
# [7] = target: T1, Voltage-gated inwardly rectifying potassium channel KCNH2; assay: Inhibition of wild type human ERG channel expressed in Xenopus laevis oocytes assessed as time taken for use dependent steady state block of K+ current at 150 uM preincubated for 330 secs followed by pulse train at 1 Hz at holding potential -100 mV by two-electrode voltage clamp method
# T1 sequence (Q12809 whole entry): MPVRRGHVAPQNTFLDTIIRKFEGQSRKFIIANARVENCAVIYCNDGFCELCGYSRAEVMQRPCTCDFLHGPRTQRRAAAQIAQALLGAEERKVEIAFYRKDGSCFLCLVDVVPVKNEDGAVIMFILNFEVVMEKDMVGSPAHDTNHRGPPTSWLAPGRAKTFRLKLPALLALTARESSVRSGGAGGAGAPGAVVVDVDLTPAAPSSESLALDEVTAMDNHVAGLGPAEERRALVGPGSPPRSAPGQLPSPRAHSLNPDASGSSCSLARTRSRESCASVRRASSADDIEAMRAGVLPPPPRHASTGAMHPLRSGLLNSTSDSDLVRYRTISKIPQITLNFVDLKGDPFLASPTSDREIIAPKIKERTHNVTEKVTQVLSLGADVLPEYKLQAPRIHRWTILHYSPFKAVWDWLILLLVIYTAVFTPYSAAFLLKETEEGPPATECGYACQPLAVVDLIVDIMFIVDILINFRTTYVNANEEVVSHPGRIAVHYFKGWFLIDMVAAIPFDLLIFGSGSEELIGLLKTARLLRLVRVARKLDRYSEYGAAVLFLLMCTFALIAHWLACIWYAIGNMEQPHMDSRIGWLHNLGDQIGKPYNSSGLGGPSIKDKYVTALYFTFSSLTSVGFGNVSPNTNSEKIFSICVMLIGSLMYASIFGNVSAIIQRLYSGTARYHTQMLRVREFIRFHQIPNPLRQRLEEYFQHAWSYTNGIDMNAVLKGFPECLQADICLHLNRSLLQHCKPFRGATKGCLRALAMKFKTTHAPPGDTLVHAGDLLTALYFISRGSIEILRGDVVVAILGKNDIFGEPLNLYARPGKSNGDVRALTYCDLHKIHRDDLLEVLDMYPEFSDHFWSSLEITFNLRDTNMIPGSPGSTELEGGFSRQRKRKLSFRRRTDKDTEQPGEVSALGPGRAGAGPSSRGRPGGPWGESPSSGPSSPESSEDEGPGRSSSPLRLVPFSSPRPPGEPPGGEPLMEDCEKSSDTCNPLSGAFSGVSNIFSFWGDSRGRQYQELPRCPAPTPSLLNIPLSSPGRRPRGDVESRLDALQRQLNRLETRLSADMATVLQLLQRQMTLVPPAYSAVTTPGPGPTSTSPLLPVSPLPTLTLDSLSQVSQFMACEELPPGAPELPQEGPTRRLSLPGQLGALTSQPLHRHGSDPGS
# T2 sequence (Q12809 whole entry): as above
# hERG (KCNH2) Y652A mutant, sequence (Q12809 whole entry Y652A): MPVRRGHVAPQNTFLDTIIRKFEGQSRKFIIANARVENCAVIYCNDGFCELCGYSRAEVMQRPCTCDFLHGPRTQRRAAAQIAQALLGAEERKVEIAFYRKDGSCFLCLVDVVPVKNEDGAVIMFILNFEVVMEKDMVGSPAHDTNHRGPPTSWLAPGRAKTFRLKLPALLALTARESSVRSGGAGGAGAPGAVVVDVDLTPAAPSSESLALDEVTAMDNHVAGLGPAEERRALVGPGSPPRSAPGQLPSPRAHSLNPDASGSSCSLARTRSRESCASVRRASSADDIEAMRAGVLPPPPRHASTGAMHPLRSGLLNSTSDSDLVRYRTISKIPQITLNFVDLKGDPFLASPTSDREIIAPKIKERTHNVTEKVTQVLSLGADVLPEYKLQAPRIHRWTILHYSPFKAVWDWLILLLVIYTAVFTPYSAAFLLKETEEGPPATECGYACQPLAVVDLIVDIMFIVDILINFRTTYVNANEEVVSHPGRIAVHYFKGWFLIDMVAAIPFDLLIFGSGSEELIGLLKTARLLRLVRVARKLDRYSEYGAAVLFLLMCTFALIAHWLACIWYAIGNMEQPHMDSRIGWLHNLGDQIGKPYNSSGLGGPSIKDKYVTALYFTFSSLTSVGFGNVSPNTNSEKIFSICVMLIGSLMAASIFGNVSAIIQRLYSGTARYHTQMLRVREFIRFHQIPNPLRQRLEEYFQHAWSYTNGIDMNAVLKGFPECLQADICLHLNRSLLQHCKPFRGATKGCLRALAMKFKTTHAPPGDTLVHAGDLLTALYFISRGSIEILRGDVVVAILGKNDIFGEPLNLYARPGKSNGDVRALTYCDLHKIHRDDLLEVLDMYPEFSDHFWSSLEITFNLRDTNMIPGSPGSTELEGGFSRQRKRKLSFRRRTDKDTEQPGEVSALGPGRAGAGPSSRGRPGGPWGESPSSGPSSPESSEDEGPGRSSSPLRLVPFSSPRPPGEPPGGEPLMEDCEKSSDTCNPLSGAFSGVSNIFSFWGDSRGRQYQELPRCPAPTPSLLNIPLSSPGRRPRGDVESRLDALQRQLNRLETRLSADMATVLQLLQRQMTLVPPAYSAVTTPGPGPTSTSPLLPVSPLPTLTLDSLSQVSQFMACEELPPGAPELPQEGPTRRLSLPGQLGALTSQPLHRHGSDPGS
# hERG (KCNH2) F656A mutant, sequence (Q12809 whole entry F656A): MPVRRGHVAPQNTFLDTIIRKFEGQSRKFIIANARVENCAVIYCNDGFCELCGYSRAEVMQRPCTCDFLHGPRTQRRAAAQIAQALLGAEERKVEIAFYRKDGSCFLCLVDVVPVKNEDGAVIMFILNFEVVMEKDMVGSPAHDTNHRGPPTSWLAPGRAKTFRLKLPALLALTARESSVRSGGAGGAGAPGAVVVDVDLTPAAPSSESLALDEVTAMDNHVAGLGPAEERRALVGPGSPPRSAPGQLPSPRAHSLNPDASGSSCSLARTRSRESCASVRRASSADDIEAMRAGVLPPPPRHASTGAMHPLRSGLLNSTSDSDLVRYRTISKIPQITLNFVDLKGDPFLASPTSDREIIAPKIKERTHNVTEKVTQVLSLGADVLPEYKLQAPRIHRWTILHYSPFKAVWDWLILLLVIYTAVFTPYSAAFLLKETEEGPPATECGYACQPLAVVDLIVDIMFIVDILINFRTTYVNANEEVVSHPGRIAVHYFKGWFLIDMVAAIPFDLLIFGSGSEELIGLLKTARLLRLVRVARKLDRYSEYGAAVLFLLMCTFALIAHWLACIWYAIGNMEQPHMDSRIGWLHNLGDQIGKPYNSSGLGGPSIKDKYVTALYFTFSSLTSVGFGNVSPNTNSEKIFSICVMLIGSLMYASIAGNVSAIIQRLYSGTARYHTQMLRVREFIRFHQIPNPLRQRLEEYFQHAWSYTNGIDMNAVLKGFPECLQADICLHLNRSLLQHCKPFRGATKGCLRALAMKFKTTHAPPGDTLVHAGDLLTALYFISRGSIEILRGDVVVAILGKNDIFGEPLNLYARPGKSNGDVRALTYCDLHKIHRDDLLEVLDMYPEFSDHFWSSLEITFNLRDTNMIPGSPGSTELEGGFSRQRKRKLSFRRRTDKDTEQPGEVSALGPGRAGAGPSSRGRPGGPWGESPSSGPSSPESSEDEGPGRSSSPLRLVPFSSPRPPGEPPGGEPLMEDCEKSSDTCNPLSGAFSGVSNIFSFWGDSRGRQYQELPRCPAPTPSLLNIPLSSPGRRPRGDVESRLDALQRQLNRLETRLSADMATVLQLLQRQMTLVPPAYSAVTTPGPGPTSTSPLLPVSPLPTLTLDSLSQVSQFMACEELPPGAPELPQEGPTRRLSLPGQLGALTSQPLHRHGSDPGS
smiles,measurement,setting,value
O=C(CCc1ccccc1)c1ccccc1OCC(O)CN1CCN(C(c2ccccc2)(c2ccccc2)c2ccccc2)CC1 (configuration not stated),inhibition (INH),[1],Active
same,activity at 5 min,[2],< 1%
same,"inhibition at 330 s, 150 µM",[3],69%
same,"inhibition at 5 min, 150 µM",[4],13.2%
same,inhibition at 150 µM,[5],18.3%
same,Activity,[6],47.5%
same,Time,[7],15 s
